Results as given in ChEMBL document CHEMBL5223122, “Discovery and preclinical evaluations of GST-HG131, a novel HBV antigen inhibitor for the treatment of chronic hepatitis B infection” (Bioorg Med Chem Lett, 2022).
The source made the active and inactive calls. The calls are words filed in the database; no cut-off is given here.

Assays:
[1] = Half life in C57BL/6 mouse at 1 mg/kg, iv; assay type: ADME, organism-based; conditions: in vivo
[2] = Toxicity in mouse infected with AAV encapsidated HBV assessed as change in body weight at 3 to 10 mg/kg, po QD for 4 weeks; assay type: organism-based; conditions: in vivo, 672 h, dose 3-10 mg/kg
[3] = Microsomal stability in mouse liver microsomes assessed as intrinsic clearance measured per mg of protein; assay type: ADME, Microsome; conditions: read-out: CLH
[4] = tested on: Hepatitis B virus; experiment: Antiviral activity against HBV infected in human HepG2.2.15 cells assessed as reduction of 2.4/2.1 Kb HBV RNA level at 500 nM incubated for 4 to 48 hrs by Northern blot anlaysis; assay type: functional, organism-based; conditions: time 4-48 hrs, TDE = time-dependent effect
[5] = Clearance in C57BL/6 mouse at 1 mg/kg, iv; assay type: ADME, organism-based; conditions: in vivo
[6] = tested on: Hepatitis B virus; experiment: Antiviral activity against HBV infected in human HepG2.2.15 assessed as HBV DNA reduction by qPCR method; assay type: functional, organism-based
[7] = tested on: Hepatitis B virus; experiment: In vivo antiviral activity against AAV encapsidated HBV infected in mouse assessed as reduction in HBsAg level at 10 mg/kg, po QD for 4 weeks in presence of tenofovir disoproxil fumarate by ELISA; assay type: functional, organism-based
[8] = tested on: Hepatitis B virus; experiment: Antiviral activity against HBV infected in human HepG2.2.15 cells assessed as reduction of 3.5 Kb HBV RNA level at 0.23 to 500 nM by Northern blot anlaysis; assay type: functional, organism-based; conditions: dose 0.23-500 nM
[9] = biological target: CYP2C9 (Homo sapiens, UniProt P11712); experiment: Inhibition of CYP2C9 (unknown origin); assay type: ADME
Chain of CYP2C9 (P11712 whole entry): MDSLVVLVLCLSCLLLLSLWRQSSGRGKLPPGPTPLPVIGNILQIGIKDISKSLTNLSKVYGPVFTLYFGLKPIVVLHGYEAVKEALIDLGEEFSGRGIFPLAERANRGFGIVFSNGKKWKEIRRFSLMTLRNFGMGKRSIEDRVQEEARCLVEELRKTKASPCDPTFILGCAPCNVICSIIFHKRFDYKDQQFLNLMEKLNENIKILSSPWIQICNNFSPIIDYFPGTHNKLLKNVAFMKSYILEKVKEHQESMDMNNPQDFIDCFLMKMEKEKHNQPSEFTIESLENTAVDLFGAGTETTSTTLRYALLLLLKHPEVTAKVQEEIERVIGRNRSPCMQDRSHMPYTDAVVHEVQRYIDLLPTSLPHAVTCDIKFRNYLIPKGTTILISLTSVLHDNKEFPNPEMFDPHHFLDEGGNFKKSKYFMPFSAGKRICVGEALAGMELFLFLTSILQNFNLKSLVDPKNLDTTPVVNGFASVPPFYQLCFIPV

[10] = Toxicity in rat assessed as organ abnormality at 100 to 300 mg/kg, po QD for 14 days; assay type: organism-based; conditions: in vivo, 336 h, dose 100-300 mg/kg, time 14 day
[11] = Glutathione reactivity assessed as GSH adduct formation; assay type: ADME
[12] = Half life in Sprague-Dawley rat at 1 mg/kg, iv; assay type: ADME, organism-based; conditions: in vivo
[13] = Oral bioavailability in Beagle dog at 3 mg/kg; assay type: ADME, organism-based, Canis lupus familiaris; conditions: in vivo
[14] = Apparent permeability across basolateral to apical side in human Caco-2 cells; assay type: ADME, cell-based
[15] = biological target: Cytochrome P450 3A4 (Homo sapiens, UniProt P08684); experiment: Induction of CYP3A4 (unknown origin); assay type: ADME
Chain of Cytochrome P450 3A4 (P08684 whole entry): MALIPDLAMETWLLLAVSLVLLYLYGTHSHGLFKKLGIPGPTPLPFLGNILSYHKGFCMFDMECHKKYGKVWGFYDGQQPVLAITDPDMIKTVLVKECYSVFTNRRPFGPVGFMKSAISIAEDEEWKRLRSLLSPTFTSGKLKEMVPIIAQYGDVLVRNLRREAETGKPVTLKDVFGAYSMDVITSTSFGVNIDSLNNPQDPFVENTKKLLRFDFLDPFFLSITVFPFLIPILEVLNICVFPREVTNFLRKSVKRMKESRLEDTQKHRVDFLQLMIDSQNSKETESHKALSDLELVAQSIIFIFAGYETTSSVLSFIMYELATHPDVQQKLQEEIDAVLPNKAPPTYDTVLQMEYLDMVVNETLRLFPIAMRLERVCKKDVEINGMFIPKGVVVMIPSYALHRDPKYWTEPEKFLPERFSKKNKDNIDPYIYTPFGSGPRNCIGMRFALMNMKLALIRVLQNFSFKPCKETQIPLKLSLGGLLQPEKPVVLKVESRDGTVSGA

[16] = biological target: CYP3A4 (Homo sapiens, UniProt P08684); experiment: Inhibition of CYP3A4 (unknown origin); assay type: ADME
Chain of CYP3A4 (P08684 whole entry): as above

[17] = tested on: Hepatitis B virus; experiment: Antiviral activity against HBV infected in human HepG2.2.15 cells assessed as reduction of 2.4/2.1 Kb HBV RNA level at 0.23 to 500 nM by Northern blot anlaysis; assay type: functional, organism-based; conditions: dose 0.23-500 nM
[18] = AUC (0-last) in Beagle dog at 3 mg/kg, po; assay type: ADME, organism-based, Canis lupus familiaris; design: dose 3 mg/kg, route po; conditions: in vivo
[19] = tested on: Hepatitis B virus; experiment: In vivo antiviral activity against AAV encapsidated HBV infected in mouse assessed as reduction in HBeAg level at 10 mg/kg, po QD for 4 weeks in presence of tenofovir disoproxil fumarate by ELISA; assay type: functional, organism-based
[20] = Oral bioavailability in C57BL/6 mouse at 2 mg/kg; assay type: ADME, organism-based; conditions: in vivo
[21] = tested on: Hepatitis B virus; experiment: Antiviral activity against HBV infected in human primary hepatocytes assessed as reduction on HBsAg level by ELISA; assay type: functional, organism-based; conditions: Hepatocyte
[22] = Clearance in Beagle dog at 1 mg/kg, iv; assay type: ADME, organism-based, Canis lupus familiaris; conditions: in vivo
[23] = Toxicity in rat assessed as mild white myeloid lymphocytopenia of spleen at 1000 mg/kg, po QD for 14 days; assay type: organism-based; conditions: in vivo, 336 h, time 14 day
[24] = Oral bioavailability in Sprague-Dawley rat at 2 mg/kg; assay type: ADME, organism-based; conditions: in vivo
[25] = tested on: Hepatitis B virus; experiment: In vivo antiviral activity against AAV encapsidated HBV infected in mouse assessed as reduction in HBV DNA at 10 mg/kg, po QD for 4 weeks in presence of tenofovir disoproxil fumarate by qPCR method; assay type: functional, organism-based
[26] = Cmax in Sprague-Dawley rat at 2 mg/kg, po; assay type: ADME, organism-based; design: dose 2 mg/kg, route po; conditions: in vivo
[27] = Volume of distribution in steady state in C57BL/6 mouse at 1 mg/kg, iv; assay type: ADME, organism-based; conditions: in vivo, read-out: Vdss
[28] = Cmax in Beagle dog at 3 mg/kg, po; assay type: ADME, organism-based, Canis lupus familiaris; design: dose 3 mg/kg, route po; conditions: in vivo
[29] = Toxicity in rat assessed as rectal temperature at 300 to 1000 mg/kg, po measured after 1 hrs; assay type: organism-based; conditions: in vivo, dose 300-1000 mg/kg
[30] = biological target: CYP2D6 (Homo sapiens, UniProt P10635); experiment: Inhibition of CYP2D6 (unknown origin); assay type: ADME
Chain of CYP2D6 (P10635 whole entry): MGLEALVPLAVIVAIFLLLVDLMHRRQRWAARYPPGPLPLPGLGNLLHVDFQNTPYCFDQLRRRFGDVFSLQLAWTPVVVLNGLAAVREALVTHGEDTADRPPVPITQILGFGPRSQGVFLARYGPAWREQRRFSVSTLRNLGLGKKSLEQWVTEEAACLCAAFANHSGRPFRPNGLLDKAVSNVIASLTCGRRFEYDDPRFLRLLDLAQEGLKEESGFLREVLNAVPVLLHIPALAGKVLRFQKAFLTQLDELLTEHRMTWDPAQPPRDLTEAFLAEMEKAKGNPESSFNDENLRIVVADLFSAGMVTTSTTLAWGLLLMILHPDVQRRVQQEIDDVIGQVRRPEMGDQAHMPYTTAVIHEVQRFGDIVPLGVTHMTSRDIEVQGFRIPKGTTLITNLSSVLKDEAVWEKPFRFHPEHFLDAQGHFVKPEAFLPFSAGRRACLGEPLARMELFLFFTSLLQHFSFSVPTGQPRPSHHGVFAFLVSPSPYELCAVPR

[31] = tested on: Hepatitis B virus; experiment: In vivo antiviral activity against AAV encapsidated HBV infected in mouse assessed as reduction in HBeAg level at 3 to 10 mg/kg, po QD for 4 weeks by ELISA; assay type: functional, organism-based; conditions: dose 3-10 mg/kg
[32] = Cmax in C57BL/6 mouse at 2 mg/kg, po; assay type: ADME, organism-based; design: dose 2 mg/kg, route po; conditions: in vivo
[33] = Protein binding in rat plasma assessed as unbound fraction; assay type: ADME, cell-free
[34] = Microsomal stability in rat liver microsomes assessed as intrinsic clearance measured per mg of protein; assay type: ADME, Microsome; conditions: read-out: CLH
[35] = Volume of distribution in steady state in Beagle dog at 1 mg/kg, iv; assay type: ADME, organism-based, Canis lupus familiaris; conditions: in vivo, read-out: Vdss
[36] = Protein binding in human plasma assessed as unbound fraction; assay type: ADME, cell-free
[37] = tested on: Hepatitis B virus; experiment: Antiviral activity against HBV infected in human primary hepatocytes assessed as reduction on HBeAg level by ELISA; assay type: functional, organism-based; conditions: Hepatocyte
[38] = biological target: Voltage-gated inwardly rectifying potassium channel KCNH2 (Homo sapiens, UniProt Q12809); experiment: Inhibition of human ERG; assay type: toxicity
Chain of Voltage-gated inwardly rectifying potassium channel KCNH2 (Q12809 whole entry): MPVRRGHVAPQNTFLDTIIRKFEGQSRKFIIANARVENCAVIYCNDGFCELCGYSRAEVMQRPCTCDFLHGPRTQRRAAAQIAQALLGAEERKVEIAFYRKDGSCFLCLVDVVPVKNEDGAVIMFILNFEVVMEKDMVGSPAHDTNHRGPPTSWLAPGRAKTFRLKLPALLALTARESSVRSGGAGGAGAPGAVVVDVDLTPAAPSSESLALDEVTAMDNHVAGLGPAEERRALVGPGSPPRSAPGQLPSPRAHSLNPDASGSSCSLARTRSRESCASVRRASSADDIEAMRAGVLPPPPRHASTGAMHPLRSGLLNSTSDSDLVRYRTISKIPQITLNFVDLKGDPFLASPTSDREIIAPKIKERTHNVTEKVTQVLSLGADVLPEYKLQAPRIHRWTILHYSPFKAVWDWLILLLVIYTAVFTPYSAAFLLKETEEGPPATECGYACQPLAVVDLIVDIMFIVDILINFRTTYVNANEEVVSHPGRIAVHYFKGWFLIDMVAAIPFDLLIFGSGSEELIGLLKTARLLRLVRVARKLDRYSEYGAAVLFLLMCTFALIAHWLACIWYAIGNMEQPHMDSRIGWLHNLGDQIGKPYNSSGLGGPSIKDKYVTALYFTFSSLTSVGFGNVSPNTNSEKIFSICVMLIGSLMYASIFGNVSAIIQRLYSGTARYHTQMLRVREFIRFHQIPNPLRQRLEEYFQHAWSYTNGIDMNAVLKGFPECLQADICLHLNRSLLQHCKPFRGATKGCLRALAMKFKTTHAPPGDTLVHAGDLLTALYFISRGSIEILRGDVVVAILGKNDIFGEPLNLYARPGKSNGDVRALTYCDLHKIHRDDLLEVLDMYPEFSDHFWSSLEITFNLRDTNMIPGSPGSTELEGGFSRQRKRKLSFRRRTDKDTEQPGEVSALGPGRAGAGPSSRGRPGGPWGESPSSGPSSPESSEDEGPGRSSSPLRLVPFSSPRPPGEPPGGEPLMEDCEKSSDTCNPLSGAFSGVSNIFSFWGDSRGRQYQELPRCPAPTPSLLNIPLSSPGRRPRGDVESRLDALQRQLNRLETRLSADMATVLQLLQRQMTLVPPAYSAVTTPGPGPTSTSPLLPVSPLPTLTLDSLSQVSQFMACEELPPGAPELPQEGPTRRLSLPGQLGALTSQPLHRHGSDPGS

[39] = Apparent permeability across apical to basolateral side in human Caco-2 cells; assay type: ADME, cell-based
[40] = Half life in Beagle dog at 1 mg/kg, iv; assay type: ADME, organism-based, Canis lupus familiaris; conditions: in vivo
[41] = Clearance in Sprague-Dawley rat at 1 mg/kg, iv; assay type: ADME, organism-based; conditions: in vivo
[42] = biological target: T1, CYP1A2 (Homo sapiens, UniProt P05177); experiment: Inhibition of CYP1A2 (unknown origin); assay type: ADME
T1 sequence (P05177 whole entry): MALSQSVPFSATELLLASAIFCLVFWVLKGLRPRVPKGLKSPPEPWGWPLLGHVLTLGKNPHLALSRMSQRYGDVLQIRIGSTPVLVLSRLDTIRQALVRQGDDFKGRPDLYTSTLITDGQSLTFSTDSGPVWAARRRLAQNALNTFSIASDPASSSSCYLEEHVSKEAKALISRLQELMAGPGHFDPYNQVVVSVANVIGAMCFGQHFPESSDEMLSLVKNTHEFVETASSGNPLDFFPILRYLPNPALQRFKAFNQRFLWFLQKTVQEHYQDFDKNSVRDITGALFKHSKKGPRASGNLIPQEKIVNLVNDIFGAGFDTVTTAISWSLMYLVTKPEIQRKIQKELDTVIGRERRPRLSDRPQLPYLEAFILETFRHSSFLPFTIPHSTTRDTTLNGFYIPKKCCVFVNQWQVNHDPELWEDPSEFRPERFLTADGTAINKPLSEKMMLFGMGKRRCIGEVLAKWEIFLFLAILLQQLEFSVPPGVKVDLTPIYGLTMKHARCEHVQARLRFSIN

[43] = Microsomal stability in dog liver microsomes assessed as intrinsic clearance measured per mg of protein; assay type: ADME, Canis lupus familiaris, Microsome; conditions: read-out: CLH
[44] = Microsomal stability in human liver microsomes assessed as intrinsic clearance measured per mg of protein; assay type: ADME, Microsome; conditions: read-out: CLH
[45] = tested on: Hepatitis B virus; experiment: In vivo antiviral activity against AAV encapsidated HBV infected in mouse assessed as reduction in HBsAg level at 3 to 10 mg/kg, po QD for 4 weeks by ELISA; assay type: functional, organism-based; conditions: dose 3-10 mg/kg
[46] = Volume of distribution in steady state in Sprague-Dawley rat at 1 mg/kg, iv; assay type: ADME, organism-based; conditions: in vivo, read-out: Vdss
[47] = Efflux ratio of apparent permeability from basolateral to apical side over apical to basolateral side in human Caco-2 cells; assay type: ADME, cell-based
[48] = tested on: Hepatitis B virus; experiment: Antiviral activity against HBV infected in human HepG2.2.15 cells assessed as maximum efficacy causing reduction of 3.5 Kb HBV RNA level incubated for 16 hrs by Northern blot anlaysis; assay type: functional, organism-based
[49] = Microsomal stability in cynomolgus monkey liver microsomes assessed as intrinsic clearance measured per mg of protein; assay type: ADME, Macaca fascicularis, Microsome; conditions: read-out: CLH
[50] = tested on: Hepatitis B virus; experiment: In vivo antiviral activity against AAV encapsidated HBV infected in mouse assessed as reduction in HBV DNA at 3 to 10 mg/kg, po QD for 4 weeks by qPCR method; assay type: functional, organism-based; conditions: dose 3-10 mg/kg
[51] = tested on: Hepatitis B virus; experiment: Antiviral activity against HBV infected in human HepG2.2.15 cells assessed as reduction of 3.5 Kb HBV RNA level at 500 nM incubated for 4 to 48 hrs by Northern blot anlaysis; assay type: functional, organism-based; conditions: time 4-48 hrs, TDE = time-dependent effect
[52] = tested on: Hepatitis B virus; experiment: Antiviral activity against HBV infected in human primary hepatocytes assessed as HBV DNA reduction at 20 uM by qPCR method; assay type: functional, Primary hepatocyte; design: scale not given: the % may be the effect or the level left
[53] = biological target: CYP2C19 (Homo sapiens, UniProt P33261); experiment: Inhibition of CYP2C19 (unknown origin); assay type: ADME
Chain of CYP2C19 (P33261 whole entry): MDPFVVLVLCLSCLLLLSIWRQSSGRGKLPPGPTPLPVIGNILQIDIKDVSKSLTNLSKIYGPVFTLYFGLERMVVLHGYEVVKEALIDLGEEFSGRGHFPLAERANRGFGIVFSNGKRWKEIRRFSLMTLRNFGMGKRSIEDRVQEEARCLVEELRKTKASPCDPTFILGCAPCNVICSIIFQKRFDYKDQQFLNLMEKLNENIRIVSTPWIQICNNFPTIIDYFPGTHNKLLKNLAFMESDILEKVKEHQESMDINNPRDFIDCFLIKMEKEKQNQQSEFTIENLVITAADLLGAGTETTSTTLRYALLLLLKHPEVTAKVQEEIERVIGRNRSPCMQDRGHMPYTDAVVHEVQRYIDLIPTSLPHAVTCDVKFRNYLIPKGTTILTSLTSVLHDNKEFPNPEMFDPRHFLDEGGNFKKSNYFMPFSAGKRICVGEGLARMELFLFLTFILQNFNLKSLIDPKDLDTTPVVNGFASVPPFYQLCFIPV

[54] = tested on: Hepatitis B virus; experiment: Antiviral activity against HBV infected in human HepG2.2.15 assessed as reduction on HBsAg level by ELISA; assay type: functional, organism-based

## COCCCOc1cc2c(cc1OC)-c1cc(=O)c(C(=O)O)cn1[C@H](C(C)(C)C)CO2
[1]
  half-life: 2.5 h
[2]
  Activity: Non-Toxic
[3]
  microsomal CLint: < 7.5 µL/min/mg
[4]
  Activity: Tde
[5]
  clearance: 75 mL/min/kg
[6]
  EC50: 0.0026 µM
[7]
  Activity: inactive
[8]
  Activity: Dose-Dependent Effect
[9]
  IC50: > 50 µM
[10]
  Activity: Non-Toxic
[11]
  Activity: Not Active
[12]
  half-life: 2 h
[13]
  bioavailability: 93.2%
[14]
  Papp B→A: 20.4 ×10⁻⁶ cm/s
[15]
  Activity: Not Active
[16]
  IC50: > 50 µM
[17]
  Activity: Dose-Dependent Effect
[18]
  AUC(0-t): 26.5 µM·h
[19]
  Activity: inactive
[20]
  bioavailability: 91.6%
[21]
  EC50: 0.0282 µM
[22]
  clearance: 4.04 mL/min/kg
[23]
  Activity: Toxic
[24]
  bioavailability: 71.1%
[25]
  Activity: Active
[26]
  Cmax: 659 nM
[27]
  Vd: 5.8 L/kg
[28]
  Cmax: 4850 nM
[29]
  Activity: Non-Toxic
[30]
  IC50: > 50 µM
[31]
  Activity: Dose-Dependent Effect
[32]
  Cmax: 1060 nM
[33]
  fraction unbound: 0.414
[34]
  microsomal CLint: < 7.5 µL/min/mg
[35]
  Vd: 1.08 L/kg
[36]
  fraction unbound: 0.44
[37]
  EC50: 0.016 µM
[38]
  IC50: > 30 µM
[39]
  Papp A→B: 1.4 ×10⁻⁶ cm/s
[40]
  half-life: 3.39 h
[41]
  clearance: 28 mL/min/kg
[42]
  IC50: > 50 µM
[43]
  microsomal CLint: < 7.5 µL/min/mg
[44]
  microsomal CLint: < 7.5 µL/min/mg
[45]
  Activity: Dose-Dependent Effect
[46]
  Vd: 1.72 L/kg
[47]
  efflux ratio: 14.1
[48]
  Activity: Active
[49]
  microsomal CLint: < 7.5 µL/min/mg
[50]
  Activity: inactive
[51]
  Activity: Tde
[52]
  Activity: 50%
[53]
  IC50: > 50 µM
[54]
  EC50: 0.0039 µM
